Experimental data published in patent US8993637B2 (priority 2013, dated 2015).

How the values were obtained:
[1] = test system: mouse FSGS model (adriamycin-induced, BALB/c mice); assay: Mouse FSGS model: urine protein and renal function (serum BUN, Cr); format: in vivo; details: Citral 200 mg/kg daily by gavage
Method: A progressive type of mouse FSGS model was used, particularly characterized by EPHLs, a key histopathology index of progression of FSGS, peri-glomerular inflammation, and progressive glomerular hyalinosis/sclerosis. The FSGS model was induced in 8-week-old male BALB/c mice (National Laboratory Animal Center, Taipei, Taiwan) by intravenous injection of a single dose of adriamycin (0.10 mg/10 g body weight) (Pfizer, New York, N.Y.) as described previously. […] Age- and sex-matched BALB/c mice were used as normal controls. Urine samples were collected in metabolic cages on days 3, 7, 14, 21, and 28. Renal cortical tissues and blood samples were collected when the mice were sacrificed and stored appropriately for further analysis. The concentration of urine protein was determined using BCA kits (Pierce, Rockford, Ill.) as described previously and normalized to urine creatinine (Cr) levels measured using kits (Wako Pure Chemical Industries, Osaka, Japan), as described previously. Serum levels of blood urea nitrogen (BUN) and Cr were determined using BUN kits and Cr kits (both from Fuji Dry-Chem Slide, Fuji Film Medical, Tokyo, Japan), as described previously. Urine and blood samples were collected from the mice at different time points, which were analyzed for proteinuria and blood urea nitrogen (BUN) and creatinine (Cr) levels by using a urease assay and a picric acid method respectively (Nephron 1998; 78: 440-452).

RAW 264.7 macrophages = assay: Pro-inflammatory cytokine ELISA in LPS-activated macrophages; format: cell-based, murine; details: LPS 1 μg/ml 24 h, culture medium
Method: ROS production was measured as the relative fluorescence intensity. […] The data are expressed as the mean±SD for three separate experiments. *p<0.05, **p<0.01 compared to the LPS-treated group. RAW-Blue™ cells (Murine macrophages RAW264.7 stably transfected with the NF-κB reporter gene) purchased from InvivoGen (San Diego, Calif.). LPS (from Escherichia coli 0111:B4) and mouse antibodies against phospho-ERK1/2, phospho-JNK1/2, and phospho-p38 (all from Sigma, St. Louis, Mo.). Rabbit antibodies against mouse ERK1, JNK1, and p38, and HRP-labeled second antibodies were purchased from Santa Cruz Biotechnology, and IL-1β, IL-6, and TNF-α ELISA kits from R&D Systems. ROS production assay, NO production assay, NF-κB reporter assay, ELISA, and Western blotting were performed as described previously.

[2] = test system: p47phox, Nrf2, NQO1, HO-1; assay: Mouse FSGS model: renal p47phox, nuclear Nrf2, NQO1 (Western blot) and HO-1 (ELISA); format: in vivo
Method: A progressive type of mouse FSGS model was used, particularly characterized by EPHLs, a key histopathology index of progression of FSGS, peri-glomerular inflammation, and progressive glomerular hyalinosis/sclerosis. The FSGS model was induced in 8-week-old male BALB/c mice (National Laboratory Animal Center, Taipei, Taiwan) by intravenous injection of a single dose of adriamycin (0.10 mg/10 g body weight) (Pfizer, New York, N.Y.) as described previously. […] Age- and sex-matched BALB/c mice were used as normal controls. Urine samples were collected in metabolic cages on days 3, 7, 14, 21, and 28. Renal cortical tissues and blood samples were collected when the mice were sacrificed and stored appropriately for further analysis. The concentration of urine protein was determined using BCA kits (Pierce, Rockford, Ill.) as described previously and normalized to urine creatinine (Cr) levels measured using kits (Wako Pure Chemical Industries, Osaka, Japan), as described previously. Serum levels of blood urea nitrogen (BUN) and Cr were determined using BUN kits and Cr kits (both from Fuji Dry-Chem Slide, Fuji Film Medical, Tokyo, Japan), as described previously. Cytoplasmic and nuclear proteins from renal tissues were prepared using a kit (Active Motif, Tokyo, Japan) according to the manufacturer's instructions and target proteins detected by immunoblotting using goat antibodies against mouse Nrf2 or p47^phox, (Santa Cruz Biotechnology, Santa Cruz, Calif.) or rabbit antibodies against mouse NQO1 (Abcam), caspase-3, caspase-8, or caspase-9 (all from Cell Signaling Technology, MA) or Bcl2 or Bax (both from Santa Cruz Biotechnology), then with horseradish-conjugated rabbit anti-goat IgG antibodies or goat-anti-rabbit IgG antibodies (both from Santa Cruz Biotechnology) as described previously. Anti-β-actin antibody (Santa Cruz Biotechnology) was used as internal controls for the nuclear and cytosolic target proteins, respectively. Renal HO-1 levels were measured using a commercial ELISA kit (R&D Systems, Minneapolis, Minn.) according to the manufacturer's instructions.

## CC(C)=CCCC(C)=CC=O (racemic) [Citral, 3,7-dimethyl-2,6-octadienal]
[1]; day 14, FSGS+Citral vs FSGS+vehicle mice
  proteinuria (urine protein): slightly inhibited
[1]; day 21, vs FSGS+vehicle mice, p<0.005
  proteinuria (urine protein): markedly inhibited
[1]; day 28, vs FSGS+vehicle mice, p<0.01
  proteinuria (urine protein): markedly inhibited
[1]; days 14 and 28, p<0.05
  serum levels of BUN: almost, or completely, suppressed
  serum levels of Cr: almost, or completely, suppressed
RAW 264.7 macrophages
  secretion level of IL-1β: inhibited
  secretion level of IL-6: inhibited
  secretion level of TNF-α: inhibited
[2]; day 14, kidney
  decrease of nuclear Nrf2 expression: inhibited at day 14 in FSGS+Citral mice, although not statistically significant
[2]; day 28, cytosolic, p<0.01
  increase of renal p47phox protein levels: inhibited
[2]; day 28, relative to normal control mice, p<0.01
  cytosolic levels of NQO1: significantly higher
[2]; day 28, vs FSGS+vehicle (p<0.005) and normal control mice (p<0.05)
  nuclear Nrf2 levels: greatly increased
[2]; days 14 and 28, vs FSGS+vehicle mice, p<0.05 or p<0.01
  renal HO-1 levels: significantly elevated
